Data as given in the NIST ThermoML archive (doi:10.1021/acs.jced.8b01146).
± gives the expanded uncertainty stated by the source.

Settings: 100 kPa, Liquid, Vibrating tube method

Row | SMILES | mass density (288.15 K) [kg/m3] | mass density (293.15 K) [kg/m3] | mass density (298.15 K) [kg/m3] | mass density (303.15 K) [kg/m3] | mass density (308.15 K) [kg/m3] | mass density (313.15 K) [kg/m3] | mass density (318.15 K) [kg/m3] | mass density (323.15 K) [kg/m3]
1 | O=C1CCCO1 [γ-butyrolactone] | 1134.26 ± 0.51 | 1129.35 ± 0.51 | 1124.44 ± 0.51 | 1119.53 ± 0.51 | 1114.61 ± 0.51 | 1109.69 ± 0.51 | 1104.77 ± 0.51 | 1099.86 ± 0.51
2 | CC1CCCC(=O)O1 (stereo not given) [2H-pyran-2-one, tetrahydro-6-methyl-] | 1053.81 ± 0.51 | 1049.47 ± 0.51 | 1045.14 ± 0.51 | 1040.81 ± 0.51 | 1036.48 ± 0.51 | 1032.15 ± 0.51 | 1027.82 ± 0.51 | 1023.51 ± 0.51
3 | CCC1CCC(=O)O1 (stereo not given) [2(3H)-furanone, 5-ethyldihydro-] | 1029.16 ± 0.54 | 1024.74 ± 0.54 | 1020.33 ± 0.53 | 1015.91 ± 0.53 | 1011.49 ± 0.53 | 1007.07 ± 0.53 | 1002.65 ± 0.53 | 998.229 ± 0.53
4 | CC1CCC(=O)O1 (stereo not given) [γ-valerolactone] | 1058.51 ± 0.51 | 1053.81 ± 0.51 | 1049.1 ± 0.51 | 1044.4 ± 0.51 | 1039.69 ± 0.51 | 1034.98 ± 0.51 | 1030.27 ± 0.51 | 1025.56 ± 0.51
5 | CC1=CCC(=O)O1 [5-methylfuran-2(3H)-one] | 1099.32 ± 0.7 | 1093.94 ± 0.7 | 1088.55 ± 0.69 | 1083.16 ± 0.69 | 1077.77 ± 0.69 | 1072.38 ± 0.68 | 1066.98 ± 0.68 | 1061.58 ± 0.67
